Laboratory results: patent publication US20240059685A1, “PIEZO1 AGONISTS FOR THE PROMOTION OF BONE FORMATION” (BIOVENTURES, LLC, priority 2019, published 2024)
“Also recorded” adds a separate entry of the source.

Tests used:
[1] = target: T1, Piezo1 (Mus musculus, UniProt E2JF22); test: qPCR gene expression of Wnt1, Ptgs2 and Tnfrsf11b in MLO-Y4 cells; assay type: cell-based, murine; details: 10 μM, 2 hours
T1 construct: To identify Piezo1 stimulators, we treated MLO-Y4 cells with compounds; endogenous in cells; host or cells: MLO-Y4 (murine osteocyte-like cell line); control sh-Luc cells, with sh-Piezo1 knock-down cells as the specificity control
T1 sequence (E2JF22 whole entry): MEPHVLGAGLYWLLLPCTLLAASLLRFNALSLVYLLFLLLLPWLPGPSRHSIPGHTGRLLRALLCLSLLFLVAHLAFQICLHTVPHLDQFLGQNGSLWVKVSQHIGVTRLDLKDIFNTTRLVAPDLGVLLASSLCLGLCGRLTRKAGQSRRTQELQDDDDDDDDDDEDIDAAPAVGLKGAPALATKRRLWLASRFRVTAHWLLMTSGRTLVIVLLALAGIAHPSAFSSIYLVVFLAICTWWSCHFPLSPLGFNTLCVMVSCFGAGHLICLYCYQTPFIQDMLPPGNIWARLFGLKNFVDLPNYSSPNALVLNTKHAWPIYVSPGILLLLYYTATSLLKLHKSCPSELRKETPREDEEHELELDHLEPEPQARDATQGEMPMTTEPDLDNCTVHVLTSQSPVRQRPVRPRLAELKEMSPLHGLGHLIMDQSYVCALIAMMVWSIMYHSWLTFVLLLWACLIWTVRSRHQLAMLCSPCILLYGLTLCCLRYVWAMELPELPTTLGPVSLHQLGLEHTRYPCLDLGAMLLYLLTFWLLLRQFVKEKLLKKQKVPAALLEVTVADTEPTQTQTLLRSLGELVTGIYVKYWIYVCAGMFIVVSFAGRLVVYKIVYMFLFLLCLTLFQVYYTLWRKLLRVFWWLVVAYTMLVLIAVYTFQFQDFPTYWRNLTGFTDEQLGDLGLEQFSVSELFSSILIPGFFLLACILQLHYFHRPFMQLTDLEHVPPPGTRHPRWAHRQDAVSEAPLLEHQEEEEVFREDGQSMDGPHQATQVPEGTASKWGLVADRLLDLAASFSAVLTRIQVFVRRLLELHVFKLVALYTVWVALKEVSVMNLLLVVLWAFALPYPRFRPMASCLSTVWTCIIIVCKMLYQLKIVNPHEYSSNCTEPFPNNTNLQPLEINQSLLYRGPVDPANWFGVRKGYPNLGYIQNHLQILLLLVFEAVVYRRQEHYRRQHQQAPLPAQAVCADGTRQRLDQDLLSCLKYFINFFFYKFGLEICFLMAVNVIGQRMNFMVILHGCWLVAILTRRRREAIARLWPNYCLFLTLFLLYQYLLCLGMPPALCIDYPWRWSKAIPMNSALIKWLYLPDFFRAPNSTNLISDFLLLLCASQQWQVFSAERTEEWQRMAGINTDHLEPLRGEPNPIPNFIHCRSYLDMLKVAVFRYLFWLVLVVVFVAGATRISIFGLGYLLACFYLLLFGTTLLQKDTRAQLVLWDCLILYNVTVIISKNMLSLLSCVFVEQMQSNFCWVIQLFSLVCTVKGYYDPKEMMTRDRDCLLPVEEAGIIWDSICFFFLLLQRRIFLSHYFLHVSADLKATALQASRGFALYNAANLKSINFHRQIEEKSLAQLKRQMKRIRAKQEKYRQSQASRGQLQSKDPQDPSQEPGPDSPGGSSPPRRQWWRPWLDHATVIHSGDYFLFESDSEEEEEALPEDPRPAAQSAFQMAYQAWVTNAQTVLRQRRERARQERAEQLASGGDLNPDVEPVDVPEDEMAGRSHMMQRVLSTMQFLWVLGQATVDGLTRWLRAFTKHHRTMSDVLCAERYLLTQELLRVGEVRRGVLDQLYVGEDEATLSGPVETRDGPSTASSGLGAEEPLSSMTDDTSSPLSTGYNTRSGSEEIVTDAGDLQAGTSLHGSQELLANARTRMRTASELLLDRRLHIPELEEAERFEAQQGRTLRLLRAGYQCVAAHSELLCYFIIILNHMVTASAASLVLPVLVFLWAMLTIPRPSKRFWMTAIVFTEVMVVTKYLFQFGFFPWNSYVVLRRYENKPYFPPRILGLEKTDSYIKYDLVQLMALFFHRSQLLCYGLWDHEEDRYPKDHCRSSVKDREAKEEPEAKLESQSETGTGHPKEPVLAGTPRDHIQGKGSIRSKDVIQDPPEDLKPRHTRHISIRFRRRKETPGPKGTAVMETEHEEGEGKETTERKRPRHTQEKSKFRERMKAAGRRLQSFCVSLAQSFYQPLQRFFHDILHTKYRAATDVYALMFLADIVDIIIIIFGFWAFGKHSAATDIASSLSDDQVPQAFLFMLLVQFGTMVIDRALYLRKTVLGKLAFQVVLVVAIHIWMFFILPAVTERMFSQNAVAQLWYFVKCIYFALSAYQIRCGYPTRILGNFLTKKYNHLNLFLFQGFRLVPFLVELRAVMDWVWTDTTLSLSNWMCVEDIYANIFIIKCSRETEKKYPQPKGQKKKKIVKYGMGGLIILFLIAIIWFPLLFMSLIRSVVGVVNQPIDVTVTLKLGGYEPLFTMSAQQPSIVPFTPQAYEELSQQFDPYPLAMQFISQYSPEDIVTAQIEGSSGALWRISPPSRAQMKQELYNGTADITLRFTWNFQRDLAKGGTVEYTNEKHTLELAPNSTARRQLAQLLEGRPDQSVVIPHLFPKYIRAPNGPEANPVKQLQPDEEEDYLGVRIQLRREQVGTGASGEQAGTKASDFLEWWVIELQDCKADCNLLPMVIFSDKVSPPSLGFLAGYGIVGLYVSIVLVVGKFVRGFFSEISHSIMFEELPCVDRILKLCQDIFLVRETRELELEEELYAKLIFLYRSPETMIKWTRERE
Protocol: Cell cultures. MLO-Y4 cells were cultured in α-MEM supplemented with 5% FBS, 5% BCS, and 1% penicillin/streptomycin/glutamine. Fifteen dynes/cm^2 oscillatory fluid shear stress was applied on MLO-Y4 cells at 1 Hz for 2 hours using an IBDI pump system (IBIDI, German). For Yoda1 treatment, cells were cultured in the presence of 10 μM Yoda1 (Sigma, St. Louis, MO) or DMSO for 2 hours. Immediately after the treatments, we isolated RNA from cells using RNeasy mini kit (Qiagen, German) for qPCR or RNA-seq analysis. To silence Piezo1, we generated Piezo1 shRNA expression plasmid using the following oligonucleotides in the pLKO.1-TRC cloning vector (Addgene Plasmid #10878, a gift from David Root): forward oligo: 5′-CCGGTC-[…]-3′ (SEQ ID NO: 1); reverse oligo: 5′-[…]-CGA-3′ (SEQ ID NO: 2) (Zhang et al., 2017). Yap1 shRNA (TRCN0000238432) and Taz shRNA (TRCN0000095951) were purchased from Sigma (St. Louis, MO). A shRNA against firefly luciferase was used as a control (Sigma, St. Louis, MO). For virus production, HEK293T cells were cultured in a 6-well culture plate and co-transfected with a total 3 μg of lentiviral shRNA vector, pMD2G (Addgene plasmid #12259, a gift from Didier Trono), and psPAX2 (Addgene plasmid #12260, a gift from Didier Trono) at the ratio of 2:0.9:0.4 using TransIT-LT1 transfection reagent (Mirus, Madison, WI). Culture media was changed 12 hours after transfection and viral supernatants were collected 48 hours after media change. Viral supernatants were filtered through a 0.45 μm filter and used immediately to transduce cells cultured in a 10 cm dish. Cells were then subjected to selection with G418 (100 μg/ml) or puromycin (25 μg/ml) for 5 days before treatment. To overexpress Piezo1 in MLO-Y4 cells, we transfected mPiezo1-IRES-eGFP (Addgene plasmid #80925, a gift from Ardem Patapoutian) into MLO-Y4 cells using TransIT-LT1 transfection reagent (Mirus, Madison, WI) and then treated these cells with 15 dynes/cm^2 oscillatory fluid shear stress at 1 Hz for 2 hours. Plasmids for expression of Cas9 and sgRNAs for knocking out Piezo1 in UAMS-32 cells were prepared by inserting oligonucleotides encoding the desired sgRNA sequence into the pX458 vector using the protocol recommended by the Zhang laboratory (Cong et al., 2013). Plasmids expressing Cas9 and Piezo1 sgRNAs were transfected into UAMS-32 cells using TransIT-LT1 transfection reagent (Mirus, Madison, WI). Cells were sorted into 96-well plates for single cell cloning 48 hours after transfection. Single cell colonies were then screened for homozygous deletion using the following primers: Forward: 5′-[…]-3′ (SEQ ID NO: 5), Reverse: 5′-[…]-3′ (SEQ ID NO: 6). All homozygous mutant cell colonies were then pooled together for further analysis. Cas9 transfected cells were used as a control. All in vitro cell culture experiments were performed three times with three technical replicates.
Quantitative PCR. Organs and whole bones were harvested from animals, removed of soft tissues, and stored immediately in liquid nitrogen. We prepared osteocyte-enriched bone by removing the ends of femurs and tibias and then flushing the bone marrow with PBS. We then scraped the bone surface with a scalpel and froze them in liquid nitrogen for later RNA isolation, or decalcified them for genomic DNA isolation. We isolated total RNA using TRIzol (Life technologies, NY), according to the manufacturer's instructions and prepared cDNA using High Capacity first strand cDNA synthesis kit (Life Technologies). We performed quantitative RT-PCR using the following Taqman assays from Applied Biosystems: Piezo1 (Mm01241549_m1); Piezo2 (Mm01265861_m1); Ptgs2 (Mm00478374_m1); Cyr61 (Mm00487498_m1); Wnt1 (Mm01300-555_g1); Yap1 (Mm011432-63_m1); Taz (Mm01289583_m1); Tnfsf11 Mm00441906_m1; Tnfrsf11b (Mm00435452_m1); Sost (Mm00470479_m1); and ribosomal protein S2 (Mrps2) (Mm00475529_m1). We calculated relative mRNA amounts using the ΔCt method (Livak and Schmittgen, 2001). […]

[2] = system: C57BL/6J mice; test: Serum osteocalcin and CTX ELISA after 2 weeks of administration; assay type: in vivo; details: 4-month-old female C57BL/6J mice, 5 μmol/kg intraperitoneally, 5 days per week for 2 weeks
Protocol: To quantify cancellous bone formation, we injected mice with calcein (20 mg/kg body weight) intraperitoneally 7 and 3 days before harvest. To quantify periosteal and endocortical bone formation, we injected mice with calcein (20 mg/kg body weight) and Alizarin Red (20 mg/kg body weight) 10 and 3 days before harvest. For gene expression, we injected Yoda1 into 4-month-old female C57BL/6J mice one time and harvested tibiae 4 hours later for RNA extraction. For bone mass evaluation, we injected Yoda1 into 4-month-old female C57BL/6J mice 5 consecutive days per week for 2 weeks (day 1-5 and day 8-12) and harvested the mice at day 15 for analysis. Yoda1 (Sigma, St. Louis, MO) was dissolved in DMSO at 40 mM as a stock, diluted in 5% ethanol, and injected intraperitoneally at 5 μmol/kg body weight. Mice were rank-ordered by body weight and then assigned to Veh or Yoda1 groups to give identical group means. All investigators involved in data collection were blinded as to the genotype and group of the mice.
Osteocalcin and CTX ELISA. Circulating osteocalcin and CTX in serum was measured using a mouse Osteocalcin enzyme immunoassay kit (Thermo Fisher) and RatLaps™ (CTX-I) EIA kit (Immunodiagnostic Systems, Boldon, UK) respectively according to the manual provided by manufacturers. Blood was collected by retro-orbital bleeding into 1.7 mL microcentrifuge tubes. […]

[3] = target: T1, Piezo1; test: Activation of Piezo1 in MLO-Y4 cells, overall conclusion from gene expression and calcium influx; assay type: cell-based, murine
Protocol: To identify Piezo1 stimulators, we treated MLO-Y4 cells with compounds Yoda1, YW-3-159, W-3-163, W-3-168-1, W-3-168-2, W-3-170, W-3-173-1, W-3-173-2, and YW-3-174. Gene expression of Wnt1, Ptgs2, and Tnfrsf11b was measured to determine the activation of Piezo1. In addition, intracellular calcium concentration was measured to determine the activity of Piezo1 channel. […] Yoda1 was used as a positive control in all experiments.

[4] = Yap1/Taz knock-down MLO-Y4 cells

| changes in gene expression (Ptgs2, Wnt1, Tnfrsf11b) after silencing of Piezo1 ([1]; Piezo1 knock-down MLO-Y4 cells) | increase of Ptgs2 after silencing Yap1 and Taz [1, 4] | increase of Tnfrsf11b after silencing Yap1 and Taz [1, 4] | increase of Wnt1 after silencing Yap1 and Taz [1, 4] | activity in activating Piezo1 compared to Yoda1 ([3]; MLO-Y4 cells in vitro) | Structure (SMILES) | Ptgs2 expression compared with vehicle ([1]; MLO-Y4 cells) | Tnfrsf11b expression compared with vehicle ([1]; MLO-Y4 cells) | Wnt1 expression compared with vehicle ([1]; MLO-Y4 cells) | serum levels of CTX, a bone resorption marker [2] | serum levels of osteocalcin, a bone formation marker [2] | Piezo1 agonist activity (conclusion in words) ([3]; MLO-Y4 cells) | Ptgs2 expression compared with positive control Yoda1 ([1]; MLO-Y4 cells) | Wnt1 expression compared with positive control Yoda1 ([1]; MLO-Y4 cells) |
| --- | --- | --- | --- | --- | --- | --- | --- | --- | --- | --- | --- | --- | --- |
| completely prevented | significantly blunted | significantly blunted | significantly blunted |  | Clc1cccc(Cl)c1CSc1nnc(-c2cnccn2)s1 [Yoda1] | stimulated expression; also recorded: higher Ptgs2 expression | stimulated expression; also recorded: higher Tnfrsf11b expression | stimulated expression; also recorded: higher Wnt1 expression | did not observe changes | increased |  |  |  |
|  |  |  |  | comparable or superior activity | Fc1ccc(Cl)c(CSc2nnc(-c3cnccn3)s2)c1Cl [YW-3-170] | higher Ptgs2 expression | higher Tnfrsf11b expression | higher Wnt1 expression |  |  | potent agonists for Piezo1; also recorded: potent and specific Piezo1 agonists | higher Ptgs2 expression than the positive control | higher Wnt1 expression than the positive control |
